These results are taken from article PMC8476755 (Frontiers in Chemistry, 2021).

The target of assay [1] is T1, BGT1 (Homo sapiens, UniProt P48065).
T1 construct: expressed in transfected cells
T1 sequence (P48065 1-614): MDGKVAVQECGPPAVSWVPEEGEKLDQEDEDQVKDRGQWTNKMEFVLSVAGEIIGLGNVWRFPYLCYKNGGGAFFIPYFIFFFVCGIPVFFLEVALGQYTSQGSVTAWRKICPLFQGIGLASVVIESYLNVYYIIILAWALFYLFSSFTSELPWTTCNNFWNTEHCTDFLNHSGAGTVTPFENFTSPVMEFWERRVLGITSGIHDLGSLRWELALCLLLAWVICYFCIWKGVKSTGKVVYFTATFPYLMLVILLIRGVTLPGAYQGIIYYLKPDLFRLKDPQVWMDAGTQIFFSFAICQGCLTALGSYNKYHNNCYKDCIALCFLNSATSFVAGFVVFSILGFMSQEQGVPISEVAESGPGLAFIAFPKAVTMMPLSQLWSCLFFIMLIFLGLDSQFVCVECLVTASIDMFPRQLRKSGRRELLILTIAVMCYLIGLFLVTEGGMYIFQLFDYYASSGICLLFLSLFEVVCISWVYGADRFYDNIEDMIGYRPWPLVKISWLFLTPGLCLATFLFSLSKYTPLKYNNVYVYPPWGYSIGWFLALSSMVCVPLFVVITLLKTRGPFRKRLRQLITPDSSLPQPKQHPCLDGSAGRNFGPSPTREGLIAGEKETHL
Nature of the assay: [3H]GABA uptake assay, single concentration screening. Type of assay: cell-based. The following applies: read-out: Percentage inhibition of [3H]GABA uptake at BGT1, 100 µM test compound; n = 2. As for the experimental part: (§1) Based on this finding, only 2 and bicyclo-GABA were further investigated pharmacologically.
(§2) (D–E) Gaddum-Schild analysis of bicyclo-GABA, yielding a Schild slope of 1.02 indicative of competitive inhibition with a calculated K B of 0.47 µM (n = 4). (F) Characterization of bicyclo-GABA and 2 at α1β2γ2 GABAA receptors by use of the FMP assay. […] Data are presented as means ± S.E.M.
Briefly, cells were seeded in white 96-well plates (White Opaque Tissue Culture (TC) plated 96-well Microplate) pre-coated with PDL. Medium was removed on the following day and cells washed with 100 µL/well assay buffer (HBSS supplemented with 20 mM HEPES, 1 mM CaCl2 and 1 mM MgCl2, pH 7.4). […] The cells were washed 3 times with 100 µL/well ice-cold assay buffer, 150 µL/well MicroScint™20 was subsequently added before the plate was shaken for at least 1 h. The plate was counted in a Packard TopCounter microplate scintillation counter (PerkinElmer) for 3 min per well. Typical counts per minute for the different GATs were in the range of: wt hBGT1 (100–4,000), BGT1 Q299 (100–1,000), hBGT E52Y (150–500), BGT1 E52A (150–8,000), BGT1 E52A + Q299L (150–500), wt GAT3 (200–8,000), GAT3 L314Q (100–1,500), wt GAT1 (100–10,000) and wt GAT2 (150–7,500). […] Data presented is the pooled data of at least three independent experiments with three technical replicates if not stated otherwise in figure legends. […]

Assay [2] concerns four human GABA transporters (GATs). Nature of the assay: [3H]GABA uptake assay, single concentration screening at the four human GATs. The following applies: 100 µM test compound, n = 2. Type of assay: cell-based. As for the experimental part: as §1, §2
(§3) Briefly, cells were seeded in white 96-well plates (White Opaque Tissue Culture (TC) plated 96-well Microplate) pre-coated with PDL. Medium was removed on the following day and cells washed with 100 µL/well assay buffer (HBSS supplemented with 20 mM HEPES, 1 mM CaCl2 and 1 mM MgCl2, pH 7.4). […] The cells were washed 3 times with 100 µL/well ice-cold assay buffer, 150 µL/well MicroScint™20 was subsequently added before the plate was shaken for at least 1 h. The plate was counted in a Packard TopCounter microplate scintillation counter (PerkinElmer) for 3 min per well. Typical counts per minute for the different GATs were in the range of: wt hBGT1 (100–4,000), BGT1 Q299 (100–1,000), hBGT E52Y (150–500), BGT1 E52A (150–8,000), BGT1 E52A + Q299L (150–500), wt GAT3 (200–8,000), GAT3 L314Q (100–1,500), wt GAT1 (100–10,000) and wt GAT2 (150–7,500). […] Data presented is the pooled data of at least three independent experiments with three technical replicates if not stated otherwise in figure legends. Concentration–response curves were fitted by non-linear regression to the sigmoidal concentration-response model with GraphPad Prism (version 9.0.0, GraphPad Software, San Diego, CA, United States) as described ([Lie et al., 2020]).

Another assay addresses T2, BGT1 E52A (Homo sapiens, UniProt P48065, E52A).
T2 construct: expressed in transfected cells; host or cells: tsA201 (transformed HEK293), transient
T2 sequence (P48065 1-614 E52A): T1 sequence (P48065 1-614) with E52A
Nature of the assay: [3H]GABA uptake assay, transient expression in tsA201 cells. The following applies: BGT1 E52A vs BGT1 wt. Type of assay: cell-based. As to the method: The residue Q299 in human BGT1 corresponds to leucine in all other GATs (human, rat, mouse), while E52 corresponds to tyrosine in GAT1 (human, rat, mouse) but is conserved among GAT2, GAT3 and BGT1 (human, rat, mouse) (Figure 6A) ([Kickinger et al., 2019]).
(§4) The tsA201 cell line (a transformed HEK293 cell line), the Flp-In CHO cell lines stably expressing human (h) GATs and the HEK293 cell line stably expressing human α1β2γ2 GABAA receptors have been described previously and were cultured accordingly ([Al-Khawaja et al., 2014]; [Falk-Petersen et al., 2020]). The tsA201 cell line used for transient expression of hGATs was transfected with DNA constructs (8 μg per 10 cm plate) using 40 μL PolyFect transfection reagent according to the manufacturer’s protocol (Qiagen).
as §3, with “well.” for “well. Typical counts per minute for the different GATs were in the range of: wt hBGT1 (100–4,000), BGT1 Q299 (100–1,000), hBGT E52Y (150–500), BGT1 E52A (150–8,000), BGT1 E52A + Q299L (150–500), wt GAT3 (200–8,000), GAT3 L314Q (100–1,500), wt GAT1 (100–10,000) and wt GAT2 (150–7,500).”

Another assay deals with T3, GAT3 L314Q (Homo sapiens, UniProt P48066, L314Q).
T3 construct: expressed in transfected cells; host or cells: tsA201 (transformed HEK293), transient
T3 sequence (P48066 1-632 L314Q): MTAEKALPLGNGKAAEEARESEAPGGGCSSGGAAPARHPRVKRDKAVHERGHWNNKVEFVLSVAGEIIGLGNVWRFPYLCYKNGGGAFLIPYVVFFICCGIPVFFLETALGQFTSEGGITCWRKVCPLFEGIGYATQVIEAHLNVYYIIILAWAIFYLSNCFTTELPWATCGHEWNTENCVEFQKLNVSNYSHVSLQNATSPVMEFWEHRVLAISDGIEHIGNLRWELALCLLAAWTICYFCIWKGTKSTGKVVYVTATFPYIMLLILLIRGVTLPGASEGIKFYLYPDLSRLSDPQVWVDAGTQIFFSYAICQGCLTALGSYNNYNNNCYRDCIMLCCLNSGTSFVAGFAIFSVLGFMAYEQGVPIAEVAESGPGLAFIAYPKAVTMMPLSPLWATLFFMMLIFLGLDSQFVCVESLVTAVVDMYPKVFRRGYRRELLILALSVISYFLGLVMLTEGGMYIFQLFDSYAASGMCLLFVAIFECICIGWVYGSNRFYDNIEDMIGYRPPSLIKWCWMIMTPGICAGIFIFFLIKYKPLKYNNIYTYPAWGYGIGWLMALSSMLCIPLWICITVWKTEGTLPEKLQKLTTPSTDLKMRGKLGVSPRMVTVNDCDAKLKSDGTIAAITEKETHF
The description is as above. It is filed as cell-based. The following applies: GAT3 L314Q, tsA201 cells; read-out: pIC50 ± S.E.M. (converted).
Text: According to the docking and MD results, the sidechains of Q299 and E52 were identified to form crucial interactions with the protonated nitrogen of both compounds. The residue Q299 in human BGT1 corresponds to leucine in all other GATs (human, rat, mouse), while E52 corresponds to tyrosine in GAT1 (human, rat, mouse) but is conserved among GAT2, GAT3 and BGT1 (human, rat, mouse) (Figure 6A) ([Kickinger et al., 2019]). Thus, we engineered the corresponding mutants Q299L and E52Y in human BGT1 and predicted that the introduction of these mutations would lead to decreased activity of both bicyclo-GABA and 2 due to the loss of essential hydrogen bond interactions. Furthermore, we wanted to test the double mutant E52Y + Q299L. However, in a previous study this mutant was proven non-functional ([Kickinger et al., 2020]). Instead, we generated the double mutant E52A + Q299L as well as the single mutant E52A. For these mutants we predicted decreased activity. Lastly, the reciprocal mutation to BGT1 Q299L was created in GAT3 (L314Q), ideally expecting a gain-of-function.
FIGURE 6 (A) Pocket alignment of the orthosteric site of the four GAT subtypes colored according to the default ClustalX color scheme ([Larkin et al., 2007]). The pocket was defined as all corresponding GAT residues (15 in total) that are within a distance of 4.5 Å of the co-crystallized ligand leucine in the homologous LeuT crystal structure (PDB ID 2A65) ([Yamashita et al., 2005]) according to the alignment by Kickinger et al. ([Kickinger et al., 2019]). The mutated residues in BGT1 and the corresponding residues in GAT1-3 are indicated by a red box. The numbering of all residues within the orthosteric pocket can be found in the Supplementary Table S1.
as §4, with “(Qiagen). All DNA constructs used have been described previously: wt hBGT1, wt GAT3 ([Kvist et al., 2009]), BGT1 Q299, GAT3 L314Q ([Jørgensen et al., 2017]), hBGT E52Y, BGT1 E52A and BGT1 E52A + Q299L ([Kickinger et al., 2020]).” for “(Qiagen).”
as §3

Assay [3] deals with BGT1. Also on record: method as in Kobayashi et al., 2014. The settings on record: ref Kobayashi et al., 2014, cited from earlier work.

Where a chain is given by its changes, count along the chain named.

`CC1(CC(=O)O)CC1N` (centres unmarked) [4a]: on BGT1 [1], the inhibition (in general, the share of the control response that was lost under treatment) at 100 µM was 68%.

For `CCC1(CC(=O)O)CC1N` (centres unmarked) [4b], the “Percentage inhibition of [3H]GABA uptake at any of the GATs” value (“Percentage inhibition of [3H]GABA uptake” below) in assay [2] was less than 15%. Take `NC1CC1(CC(=O)O)c1ccccc1` (centres unmarked) [4c]: the “Percentage inhibition of [3H]GABA uptake” value in assay [2] was less than 15%.

For `NCCCC(=O)O` [GABA, γ-aminobutyric acid], the “Increase in activity compared to wildtype” value on BGT1 E52A is recorded as “not significantly altered”. The IC50 on GAT3 L314Q is 5.01 µM. Consider `NC1CC1CC(=O)O` [compound 1, (2S,3R)-4-amino-3,4-methanobutyric acid], for which the “Less potent than bicyclo-GABA” value in the assay with BGT1 [3] is listed as 9 times. Moreover, in the assay with BGT1 [3] (subtype-selectivity BGT1 vs GAT3), the “Higher activity for BGT1 than GAT3” value is given as “three times higher activity”. For `CN(C)[C@@]12CC[C@H](C(=O)O)[C@@H]1C2` [compound 3], in assay [2], the “Percentage inhibition of [3H]GABA uptake” value is on record as less than 15%.
